Measurements as given in ChEMBL document CHEMBL3784918, “Novel 2,4-diaminopyrimidines bearing tetrahydronaphthalenyl moiety against anaplastic lymphoma kinase (ALK): Synthesis, in vitro, ex vivo, and in vivo efficacy studies” (Bioorg Med Chem Lett, 2016).
Calls of active or inactive are those of the source. The calls are words filed in the database; no cut-off is given here.

Tests used:
BaF3 = assay: Inhibition of ALK L1196M mutant in mouse BA/F3 cells assessed as inhibition of cell proliferation after 72 hrs by WST1 assay; format: cell-based
[1] = target: ALK tyrosine kinase receptor (Homo sapiens, UniProt Q9UM73); assay: Inhibition of wild type ALK (unknown origin) after 30 mins by HTRF assay
ALK tyrosine kinase receptor (Homo sapiens, UniProt Q9UM73), sequence (Q9UM73 whole entry): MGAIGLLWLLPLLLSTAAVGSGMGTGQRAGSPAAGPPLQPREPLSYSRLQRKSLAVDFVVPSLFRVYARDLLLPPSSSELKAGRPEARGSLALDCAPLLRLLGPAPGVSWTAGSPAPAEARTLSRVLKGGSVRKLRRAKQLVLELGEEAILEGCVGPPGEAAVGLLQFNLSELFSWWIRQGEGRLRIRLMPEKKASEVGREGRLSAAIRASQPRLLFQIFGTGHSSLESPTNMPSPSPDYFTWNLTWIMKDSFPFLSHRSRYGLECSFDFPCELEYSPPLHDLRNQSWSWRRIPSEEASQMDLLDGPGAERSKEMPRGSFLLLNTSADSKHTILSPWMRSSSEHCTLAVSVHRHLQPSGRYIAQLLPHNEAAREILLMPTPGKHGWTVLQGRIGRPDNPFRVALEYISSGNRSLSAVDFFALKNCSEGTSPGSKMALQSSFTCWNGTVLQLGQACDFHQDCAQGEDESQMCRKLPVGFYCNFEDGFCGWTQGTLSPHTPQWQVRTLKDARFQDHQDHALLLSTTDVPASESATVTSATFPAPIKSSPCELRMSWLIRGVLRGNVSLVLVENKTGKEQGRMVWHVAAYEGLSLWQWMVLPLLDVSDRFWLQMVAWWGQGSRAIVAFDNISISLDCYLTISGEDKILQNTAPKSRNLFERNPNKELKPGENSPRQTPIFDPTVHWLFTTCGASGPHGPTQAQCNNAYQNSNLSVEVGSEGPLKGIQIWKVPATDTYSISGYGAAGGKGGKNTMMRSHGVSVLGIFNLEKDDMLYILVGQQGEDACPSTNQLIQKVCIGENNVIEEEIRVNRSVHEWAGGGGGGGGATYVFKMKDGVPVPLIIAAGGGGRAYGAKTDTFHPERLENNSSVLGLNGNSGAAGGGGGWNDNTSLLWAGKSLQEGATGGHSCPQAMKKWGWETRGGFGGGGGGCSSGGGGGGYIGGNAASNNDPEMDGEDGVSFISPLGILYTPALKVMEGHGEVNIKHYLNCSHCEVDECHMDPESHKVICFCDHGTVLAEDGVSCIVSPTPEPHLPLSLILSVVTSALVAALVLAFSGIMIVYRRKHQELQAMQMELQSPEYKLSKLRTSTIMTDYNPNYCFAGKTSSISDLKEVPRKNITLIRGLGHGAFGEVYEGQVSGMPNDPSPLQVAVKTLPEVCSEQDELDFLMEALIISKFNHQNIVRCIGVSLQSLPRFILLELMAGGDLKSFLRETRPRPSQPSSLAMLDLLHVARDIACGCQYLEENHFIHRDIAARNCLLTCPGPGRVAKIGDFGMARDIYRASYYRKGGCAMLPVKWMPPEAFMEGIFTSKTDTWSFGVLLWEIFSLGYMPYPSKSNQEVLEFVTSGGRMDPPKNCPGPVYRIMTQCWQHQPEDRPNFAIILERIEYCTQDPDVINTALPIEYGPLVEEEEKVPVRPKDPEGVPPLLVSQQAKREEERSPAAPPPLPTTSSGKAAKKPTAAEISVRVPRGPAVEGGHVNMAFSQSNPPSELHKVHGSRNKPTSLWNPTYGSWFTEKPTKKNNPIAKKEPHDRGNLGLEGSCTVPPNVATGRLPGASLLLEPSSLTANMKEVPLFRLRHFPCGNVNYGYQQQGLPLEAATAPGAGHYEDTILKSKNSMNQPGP

[2] = target: ALK tyrosine kinase receptor (Homo sapiens, UniProt Q9UM73, L1196M); assay: Inhibition of ALK L1196M mutant (unknown origin) after 30 mins by HTRF assay
ALK tyrosine kinase receptor (Homo sapiens, UniProt Q9UM73, L1196M), sequence (Q9UM73 19-1620 L1196M limits assumed): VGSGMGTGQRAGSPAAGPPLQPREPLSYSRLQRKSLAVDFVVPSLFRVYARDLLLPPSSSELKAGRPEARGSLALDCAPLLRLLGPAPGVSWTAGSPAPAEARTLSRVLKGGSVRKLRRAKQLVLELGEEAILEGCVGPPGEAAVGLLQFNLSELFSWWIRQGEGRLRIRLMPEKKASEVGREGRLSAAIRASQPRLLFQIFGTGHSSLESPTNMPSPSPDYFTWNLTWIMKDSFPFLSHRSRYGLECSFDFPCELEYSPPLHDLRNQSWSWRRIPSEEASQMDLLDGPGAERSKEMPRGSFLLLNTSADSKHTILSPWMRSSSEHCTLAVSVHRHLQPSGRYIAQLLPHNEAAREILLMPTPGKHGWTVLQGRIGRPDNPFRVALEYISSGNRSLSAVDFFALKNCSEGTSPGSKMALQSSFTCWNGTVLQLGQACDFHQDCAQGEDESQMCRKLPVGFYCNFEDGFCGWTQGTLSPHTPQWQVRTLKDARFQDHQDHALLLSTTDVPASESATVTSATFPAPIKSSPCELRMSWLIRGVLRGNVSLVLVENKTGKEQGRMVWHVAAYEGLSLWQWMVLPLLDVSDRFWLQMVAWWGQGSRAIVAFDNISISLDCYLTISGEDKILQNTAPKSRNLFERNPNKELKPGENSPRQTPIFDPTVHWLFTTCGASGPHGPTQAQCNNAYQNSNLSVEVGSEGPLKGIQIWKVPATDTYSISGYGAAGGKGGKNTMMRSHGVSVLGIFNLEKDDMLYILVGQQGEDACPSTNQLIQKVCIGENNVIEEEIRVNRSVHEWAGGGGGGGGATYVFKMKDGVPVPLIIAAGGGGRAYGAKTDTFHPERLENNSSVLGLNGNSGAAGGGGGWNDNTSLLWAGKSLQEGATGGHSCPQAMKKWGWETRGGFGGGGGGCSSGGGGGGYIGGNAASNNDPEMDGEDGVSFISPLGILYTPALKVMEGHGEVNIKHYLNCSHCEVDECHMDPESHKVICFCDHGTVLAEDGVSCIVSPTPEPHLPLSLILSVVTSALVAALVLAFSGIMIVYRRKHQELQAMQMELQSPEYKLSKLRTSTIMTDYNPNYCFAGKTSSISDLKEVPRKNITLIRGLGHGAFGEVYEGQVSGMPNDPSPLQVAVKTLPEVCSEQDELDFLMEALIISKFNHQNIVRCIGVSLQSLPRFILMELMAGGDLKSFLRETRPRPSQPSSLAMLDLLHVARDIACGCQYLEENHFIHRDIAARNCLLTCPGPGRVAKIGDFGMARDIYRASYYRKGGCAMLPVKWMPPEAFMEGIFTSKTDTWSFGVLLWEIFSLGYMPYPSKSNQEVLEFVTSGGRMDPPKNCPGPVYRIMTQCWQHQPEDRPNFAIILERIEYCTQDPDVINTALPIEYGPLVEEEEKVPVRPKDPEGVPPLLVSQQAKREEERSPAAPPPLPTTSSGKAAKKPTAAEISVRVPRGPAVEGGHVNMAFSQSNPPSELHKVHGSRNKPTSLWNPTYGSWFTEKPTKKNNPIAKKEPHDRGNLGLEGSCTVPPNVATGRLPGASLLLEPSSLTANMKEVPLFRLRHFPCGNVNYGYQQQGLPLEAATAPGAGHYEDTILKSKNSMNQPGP

EML4-ALK (Homo sapiens) = EML4-ALK (Homo sapiens) (UniProt Q9UM73+Q9HC35); assay: Inhibition of EML4-ALK in human NCI-H3122 cells assessed as inhibition of cell proliferation after 72 hrs by SRB assay; format: cell-based
EML4-ALK (Homo sapiens), sequence (Q9HC35 whole entry partner): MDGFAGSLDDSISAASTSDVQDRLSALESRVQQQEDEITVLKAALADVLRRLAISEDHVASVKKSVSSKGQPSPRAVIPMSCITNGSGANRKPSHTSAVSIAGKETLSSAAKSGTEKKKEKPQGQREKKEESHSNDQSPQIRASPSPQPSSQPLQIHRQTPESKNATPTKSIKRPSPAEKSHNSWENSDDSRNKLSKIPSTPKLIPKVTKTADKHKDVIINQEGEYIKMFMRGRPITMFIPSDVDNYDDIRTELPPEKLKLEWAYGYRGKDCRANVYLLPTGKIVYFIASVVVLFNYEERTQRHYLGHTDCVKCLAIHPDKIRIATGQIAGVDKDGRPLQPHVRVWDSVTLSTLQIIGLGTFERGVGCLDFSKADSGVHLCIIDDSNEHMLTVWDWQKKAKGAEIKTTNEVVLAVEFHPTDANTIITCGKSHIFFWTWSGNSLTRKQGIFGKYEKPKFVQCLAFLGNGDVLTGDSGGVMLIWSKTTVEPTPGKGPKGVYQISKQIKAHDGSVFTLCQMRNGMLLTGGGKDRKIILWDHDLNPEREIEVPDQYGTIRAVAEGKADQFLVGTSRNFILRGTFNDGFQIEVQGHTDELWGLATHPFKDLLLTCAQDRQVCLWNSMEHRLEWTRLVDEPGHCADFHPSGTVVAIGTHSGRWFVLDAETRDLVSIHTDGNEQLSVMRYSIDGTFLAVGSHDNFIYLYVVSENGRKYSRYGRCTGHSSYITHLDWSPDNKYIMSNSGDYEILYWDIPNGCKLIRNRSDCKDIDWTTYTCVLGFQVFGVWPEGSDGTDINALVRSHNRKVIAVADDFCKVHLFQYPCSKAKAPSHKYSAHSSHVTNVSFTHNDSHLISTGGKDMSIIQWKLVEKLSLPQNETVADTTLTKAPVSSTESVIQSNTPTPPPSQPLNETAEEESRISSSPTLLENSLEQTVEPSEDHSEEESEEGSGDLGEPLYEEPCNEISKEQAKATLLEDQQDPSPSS
EML4-ALK (Homo sapiens), sequence (Q9UM73 19-1620 limits assumed): as the sequence (Q9UM73 19-1620 L1196M limits assumed) above, with M1178L counted along it

NCI-H3122 = assay: Antitumor activity against human NCI-H3122 cells xenografted in SCID mouse assessed as tumor growth inhibition at 50 mg/kg, po administered qd for 14 days; format: functional, organism-based
CYP2D6 = CYP2D6 (Homo sapiens, UniProt P10635); assay: Inhibition of CYP2D6 (unknown origin) at 10 uM; format: ADME
CYP2D6, sequence (P10635 whole entry): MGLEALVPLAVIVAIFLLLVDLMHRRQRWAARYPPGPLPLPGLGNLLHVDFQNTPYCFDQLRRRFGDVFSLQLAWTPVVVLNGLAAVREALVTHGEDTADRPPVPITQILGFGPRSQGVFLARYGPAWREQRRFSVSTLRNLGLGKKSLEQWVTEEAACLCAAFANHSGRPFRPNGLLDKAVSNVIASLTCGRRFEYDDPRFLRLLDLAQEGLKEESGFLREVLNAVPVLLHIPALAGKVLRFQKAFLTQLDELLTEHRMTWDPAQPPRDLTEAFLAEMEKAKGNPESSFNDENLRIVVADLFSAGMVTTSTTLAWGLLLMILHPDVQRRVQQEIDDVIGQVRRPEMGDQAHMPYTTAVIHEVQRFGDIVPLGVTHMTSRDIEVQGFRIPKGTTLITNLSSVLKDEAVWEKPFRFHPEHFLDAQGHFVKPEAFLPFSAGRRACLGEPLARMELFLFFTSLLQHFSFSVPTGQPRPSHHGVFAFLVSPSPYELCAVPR

Mus musculus = assay: Toxicity in SCID mouse xenografted with human H3122 cells assessed as change in body weight at 50 mg/kg, po administered qd for 14 days measured during compound dosing; format: organism-based; conditions: in vivo, 336 h
[3] = AUCt in cannulated Sprague Dawley rat at 10 mg/kg administered through oral gavage by LC/MS/MS analysis; format: ADME, organism-based; conditions: in vivo
CYP3A4 = CYP3A4 (Homo sapiens, UniProt P08684); assay: Inhibition of CYP3A4 (unknown origin) at 10 uM; format: ADME
CYP2C19 = CYP2C19 (Homo sapiens, UniProt P33261); assay: Inhibition of CYP2C19 (unknown origin) at 10 uM; format: ADME
[4] = Metabolic stability of the compound in human liver microsomes assessed as compound remaining at 1 uM after 30 mins by LC/MS/MS analysis in the presence of NADPH; format: ADME; conditions: read-out: Stability
[5] = Tmax in cannulated Sprague Dawley rat at 10 mg/kg administered through oral gavage by LC/MS/MS analysis; format: ADME, organism-based; conditions: in vivo
[6] = AUCinfinity in cannulated Sprague Dawley rat at 10 mg/kg administered through oral gavage by LC/MS/MS analysis; format: ADME, organism-based; set-up: dose 10 mg/kg, time infinity, route oral; conditions: in vivo
[7] = Cmax in cannulated Sprague Dawley rat at 10 mg/kg administered through oral gavage by LC/MS/MS analysis; format: ADME, organism-based; set-up: dose 10 mg/kg, route oral; conditions: in vivo
[8] = Half life in cannulated Sprague Dawley rat at 10 mg/kg administered through oral gavage by LC/MS/MS analysis; format: ADME, organism-based; conditions: in vivo
CYP1A2 = CYP1A2 (Homo sapiens, UniProt P05177); assay: Inhibition of CYP1A2 (unknown origin) at 10 uM; format: ADME
CYP2C9 = CYP2C9 (Homo sapiens, UniProt P11712); assay: Inhibition of CYP2C9 (unknown origin) at 10 uM; format: ADME
[9] = Metabolic stability of the compound in mouse liver microsomes assessed as compound remaining at 1 uM after 30 mins by LC/MS/MS analysis in the presence of NADPH; format: ADME; conditions: read-out: Stability

**Q.** Which CC50 (BaF3) does the source give for COc1cc2c(cc1Nc1ncc(Cl)c(Nc3ccccc3S(=O)(=O)C(C)C)n1)CCC(=O)C2(C)C here?
**A.** 432 nM

**Q.** Which results are given for COc1cc2c(cc1Nc1ncc(Cl)c(Nc3ccccc3S(=O)(=O)C(C)C)n1)CC/C(=N\NC(=N)N)C2(C)C?
**A.** IC50 [1]: 18 nM; IC50 [2]: 37 nM; CC50 (BaF3): 1580 nM; CC50 (EML4-ALK (Homo sapiens)): 235 nM

**Q.** Which IC50 [1] does the source give for COc1cc2c(cc1Nc1ncc(Cl)c(Nc3ccccc3S(=O)(=O)C(C)C)n1)C(C)(C)/C(=N/NC(C)=O)CC2 here?
**A.** 52 nM

**Q.** And the IC50 [2]?
**A.** 201 nM

**Q.** And the CC50 (BaF3)?
**A.** 640 nM

**Q.** What about the CC50 (EML4-ALK (Homo sapiens)) of the same molecule?
**A.** 146 nM

**Q.** What does the source list for COc1cc2c(cc1Nc1ncc(Cl)c(Nc3ccccc3S(=O)(=O)C(C)C)n1)C(C)(C)C(N)CC2 (stereo unspecified)?
**A.** IC50 [1]: 27 nM; IC50 [2]: 94 nM; CC50 (BaF3): 1750 nM; CC50 (EML4-ALK (Homo sapiens)): 2090 nM

**Q.** For COc1cc2c(cc1Nc1ncc(Cl)c(Nc3ccccc3S(=O)(=O)C(C)C)n1)CC/C(=N\NC(C)=O)C2(C)C, which IC50 [1] is on record?
**A.** 21 nM

**Q.** And the IC50 [2]?
**A.** 40 nM

**Q.** And the CC50 (BaF3)?
**A.** 314 nM

**Q.** And the CC50 (EML4-ALK (Homo sapiens))?
**A.** 128 nM

**Q.** Which results are given for COc1cc2c(cc1Nc1ncc(Cl)c(Nc3ccccc3S(=O)(=O)C(C)C)n1)CCC(O)C2(C)C (stereo unspecified)?
**A.** IC50 [1]: 21 nM; IC50 [2]: 56 nM; CC50 (BaF3): 299 nM; CC50 (EML4-ALK (Homo sapiens)): 99 nM

**Q.** For COc1cc2c(cc1Nc1ncc(Cl)c(Nc3ccccc3S(=O)(=O)C(C)C)n1)CCC(NC(=O)CN(C)C)C2(C)C (stereo unspecified), which IC50 [1] is on record?
**A.** 4.2 nM

**Q.** And the IC50 [2]?
**A.** 3.6 nM

**Q.** And the CC50 (BaF3)?
**A.** 71 nM

**Q.** And the CC50 (EML4-ALK (Homo sapiens))?
**A.** 39 nM

**Q.** Which CC50 (BaF3) does the source give for COc1cc2c(cc1Nc1ncc(Cl)c(Nc3ccccc3S(=O)(=O)C(C)C)n1)C(C)(C)C(=O)CC2 here?
**A.** 2000 nM

**Q.** What does the source list for COc1cc2c(cc1Nc1ncc(Cl)c(Nc3ccccc3S(=O)(=O)C(C)C)n1)C(C)(C)/C(=N/NC(N)=O)CC2?
**A.** IC50 [1]: 16 nM; IC50 [2]: 97 nM; CC50 (BaF3): 400 nM; CC50 (EML4-ALK (Homo sapiens)): 146 nM

**Q.** What does the source list for COc1cc2c(cc1Nc1ncc(Cl)c(Nc3ccccc3S(=O)(=O)C(C)C)n1)C(C)(C)/C(=N/NC(=N)N)CC2?
**A.** IC50 [1]: 16 nM; IC50 [2]: 100 nM; CC50 (BaF3): 2090 nM; CC50 (EML4-ALK (Homo sapiens)): 2400 nM

**Q.** For COc1cc2c(cc1Nc1ncc(Cl)c(Nc3ccccc3S(=O)(=O)C(C)C)n1)CC/C(=N\NC(N)=O)C2(C)C, which IC50 [1] is on record?
**A.** 29 nM

**Q.** What about the IC50 [2] of the same molecule?
**A.** 42 nM

**Q.** What about the CC50 (BaF3) of the same molecule?
**A.** 334 nM

**Q.** What about the CC50 (EML4-ALK (Homo sapiens)) of the same molecule?
**A.** 117 nM

**Q.** Which results are given for COc1cc2c(cc1Nc1ncc(Cl)c(Nc3ccccc3S(=O)(=O)C(C)C)n1)C(C)(C)/C(=N/N1CCOCC1)CC2?
**A.** IC50 [1]: 122 nM; IC50 [2]: 222 nM; CC50 (BaF3): 1640 nM; CC50 (EML4-ALK (Homo sapiens)): 732 nM

**Q.** For COc1cc2c(cc1Nc1ncc(Cl)c(Nc3ccccc3S(=O)(=O)C(C)C)n1)C(C)(C)/C(=N/O)CC2, which IC50 [1] is on record?
**A.** 424 nM

**Q.** And the IC50 [2]?
**A.** 600 nM

**Q.** What about the CC50 (BaF3) of the same molecule?
**A.** 1360 nM

**Q.** What about the CC50 (EML4-ALK (Homo sapiens)) of the same molecule?
**A.** 1220 nM

**Q.** With Cc1cc(Nc2ncc(Cl)c(Nc3ccccc3S(=O)(=O)C(C)C)n2)c(OC(C)C)cc1C1CCNCC1 as the molecule, how does the CC50 (BaF3) read?
**A.** 75 nM

**Q.** What about the TGI (NCI-H3122) of the same molecule?
**A.** Active

**Q.** And the CC50 (EML4-ALK (Homo sapiens))?
**A.** 38 nM

**Q.** With COc1cc2c(cc1Nc1ncc(Cl)c(Nc3ccccc3S(=O)(=O)C(C)C)n1)CCC(NC(=O)CO)C2(C)C (stereo unspecified) as the molecule, how does the IC50 [1] read?
**A.** 6.1 nM

**Q.** And the IC50 [2]?
**A.** 9.9 nM

**Q.** What about the CC50 (BaF3) of the same molecule?
**A.** 86 nM

**Q.** And the CC50 (EML4-ALK (Homo sapiens))?
**A.** 44 nM

**Q.** With COc1cc2c(cc1Nc1ncc(Cl)c(Nc3ccccc3S(=O)(=O)C(C)C)n1)C(C)(C)C(O)CC2 (stereo unspecified) as the molecule, how does the IC50 [1] read?
**A.** 34 nM

**Q.** What about the IC50 [2] of the same molecule?
**A.** 109 nM

**Q.** And the CC50 (BaF3)?
**A.** 1600 nM

**Q.** What about the CC50 (EML4-ALK (Homo sapiens)) of the same molecule?
**A.** 726 nM

**Q.** Which results are given for COc1cc2c(cc1Nc1ncc(Cl)c(Nc3ccccc3S(=O)(=O)C(C)C)n1)CC/C(=N\N1CCOCC1)C2(C)C?
**A.** IC50 [1]: 40 nM; IC50 [2]: 40 nM; CC50 (BaF3): 416 nM; CC50 (EML4-ALK (Homo sapiens)): 30 nM

**Q.** For COc1cc2c(cc1Nc1ncc(Cl)c(Nc3ccccc3S(=O)(=O)C(C)C)n1)CC/C(=N\N1CCN(C)CC1)C2(C)C, which IC50 [1] is on record?
**A.** 0.5 nM

**Q.** And the inhibition at 10 µM (CYP2D6)?
**A.** 11.4%

**Q.** And the IC50 [2]?
**A.** 8.4 nM

**Q.** And the Activity (Mus musculus)?
**A.** Non-toxic

**Q.** What about the AUC(0-t) [3] of the same molecule?
**A.** 3750 ng·h/mL

**Q.** And the inhibition at 10 µM (CYP3A4)?
**A.** 47.5%

**Q.** And the inhibition at 10 µM (CYP2C19)?
**A.** 43.4%

**Q.** What about the remaining at 0.5 h, 1 µM [4] of the same molecule?
**A.** 20%

**Q.** What about the Tmax [5] of the same molecule?
**A.** 0.833 h

**Q.** What about the AUC(0-inf) [6] of the same molecule?
**A.** 3760 ng·h/mL

**Q.** And the Cmax [7]?
**A.** 1270 ng/mL

**Q.** What about the half-life [8] of the same molecule?
**A.** 3.04 h

**Q.** What about the CC50 (BaF3) of the same molecule?
**A.** 66 nM

**Q.** What about the inhibition at 10 µM (CYP1A2) of the same molecule?
**A.** 7.2%

**Q.** What about the TGI (NCI-H3122) of the same molecule?
**A.** Active

**Q.** What about the CC50 (EML4-ALK (Homo sapiens)) of the same molecule?
**A.** 14 nM

**Q.** What about the inhibition at 10 µM (CYP2C9) of the same molecule?
**A.** 17.1%

**Q.** And the remaining at 0.5 h, 1 µM [9]?
**A.** 14%

**Q.** Which results are given for COc1cc2c(cc1Nc1ncc(Cl)c(Nc3ccccc3S(=O)(=O)C(C)C)n1)C(C)(C)/C(=N/N1CCN(C)CC1)CC2?
**A.** IC50 [1]: 44 nM; IC50 [2]: 200 nM; CC50 (BaF3): 2600 nM; CC50 (EML4-ALK (Homo sapiens)): 2830 nM

**Q.** Which IC50 [1] does the source give for COc1cc2c(cc1Nc1ncc(Cl)c(Nc3ccccc3S(=O)(=O)C(C)C)n1)CC/C(=N\O)C2(C)C here?
**A.** 212 nM

**Q.** And the CC50 (BaF3)?
**A.** 1530 nM

**Q.** And the CC50 (EML4-ALK (Homo sapiens))?
**A.** 276 nM
